In ChEMBL document CHEMBL1144134, “New biphenyl compounds with DNA strand-scission activity from Clusia paralicola” (J Nat Prod, 1999) one finds EC50 and Activity data, which are given here for 3 compounds.

One test deals with KB. Nature of the test: Cytotoxicity against human KB cells. It is filed as functional, cell-based.
Test [1] is described as follows: Induction of DNA strand-scission activity assessed as relaxation of supercoiled DNA at 2.5 ug/ml. Set-up: scale not given: the % may be the effect or the level left.

≈ marks a conversion by molar mass, not a printed value. Calls of active or inactive are those of the source. No cut-off for these calls is given here.

Usually EC50 stands for the concentration giving half of the maximal effect. Consider `CC1(C)C=Cc2c(O)cc(-c3ccc(O)cc3)cc2O1` [CLUSIPARALICOLINE C], for which a half-maximal response with KB (EC50) required 5.3 µg/mL (≈ 19.8 µM). The result in test [1] was inactive.
The matching figures for `CC(C)=CCC/C(C)=C/Cc1cc(O)c(O)cc1-c1cc(O)c(CC=C(C)C)c(O)c1` [CLUSIPARALICOLINE A]: 3.8 µg/mL (≈ 8.99 µM) and 77%.
Compound `CC(C)=CCC/C(C)=C/Cc1cc(O)c(O)cc1-c1cc(O)c2c(c1)OC(C)(C)C=C2` [CLUSIPARALICOLINE B] came in with an EC50 with KB of 4.5 µg/mL (≈ 10.7 µM). Besides, in test [1], the Activity turned out to be 65%.
